From patent US12508176B2, “Sanitary article comprising a water-soluble dry coating comprising skin beneficial additives” (priority 2022, dated 2025)

Assay: transfer study of dry water-soluble coating from sanitary article to skin (tape stripping, LC-MS/MS)
Type: in vivo, test persons
Text: FIG. 3 is a bar chart illustrating the results from a transfer study made with two sanitary articles according to the present invention. Eight test persons wore sanitary articles on three different spots on the volar forearms for three days (3 products per day). One spot was covered with products coated with formula A, one with products coated with formula B and one with reference product without any formula. After three days the skin in the test spots plus one additional spot where no product had been worn was harvested by means of tape stripping. The sample tape strips were extracted, analyzed by LC-MS/MS quantifying the betaine and allantoin content.

transfer to the skin (betaine and allantoin content of tape strips) (sanitary articles coated with formula A or B worn on volar forearms for three days, 3 products per day, tape stripping, LC-MS/MS, FIG. 3) | transfer to the skin (betaine and allantoin content of tape strips) (in vivo) | Structure (SMILES)
readily detected on the skin | – | NC(=O)NC1NC(=O)NC1=O (centres unmarked) [allantoin]
– | readily detected on the skin | C[N+](C)(C)CC(=O)[O-] [betaine, trimethylglycine]
